Test results from the NIST ThermoML archive (doi:10.1021/acs.jced.7b00106).
Numbers after ± are expanded uncertainties.

Conditions: Liquid, Hot wire method

FC(F)(F)/C=C/Cl [(E)-1-chloro-3,3,3-trifluoroprop-1-ene]
Conditions | thermal conductivity [W/m/K]
242.05 K, 36072 kPa | 0.1119 ± 0.0047
242.06 K, 13440 kPa | 0.1056 ± 0.0033
242.08 K, 7089 kPa | 0.1037 ± 0.0036
242.09 K, 28062 kPa | 0.1106 ± 0.0034
242.11 K, 583 kPa | 0.101 ± 0.0031
242.13 K, 20421 kPa | 0.1074 ± 0.0033
242.18 K, 13439 kPa | 0.105 ± 0.0037
242.22 K, 7107 kPa | 0.1031 ± 0.0039
242.24 K, 585 kPa | 0.1007 ± 0.0034
242.32 K, 63843 kPa | 0.1195 ± 0.0059
242.33 K, 53263 kPa | 0.1172 ± 0.0038
242.34 K, 36064 kPa | 0.112 ± 0.0034
242.34 K, 43841 kPa | 0.1149 ± 0.0058
242.41 K, 28063 kPa | 0.1093 ± 0.0053
242.45 K, 20418 kPa | 0.1078 ± 0.0035
242.46 K, 53261 kPa | 0.1167 ± 0.0052
242.46 K, 63839 kPa | 0.1194 ± 0.0037
242.47 K, 43873 kPa | 0.1147 ± 0.0066
242.49 K, 36067 kPa | 0.1119 ± 0.0036
242.5 K, 13437 kPa | 0.1053 ± 0.0032
242.54 K, 7100 kPa | 0.1033 ± 0.005
242.55 K, 28067 kPa | 0.11 ± 0.006
242.56 K, 597 kPa | 0.101 ± 0.0031
242.59 K, 20435 kPa | 0.1072 ± 0.0043
242.65 K, 13436 kPa | 0.105 ± 0.0032
242.69 K, 7107 kPa | 0.1029 ± 0.0039
242.76 K, 53251 kPa | 0.1166 ± 0.0052
242.76 K, 63833 kPa | 0.1199 ± 0.0037
242.79 K, 43839 kPa | 0.115 ± 0.0038
242.81 K, 36066 kPa | 0.1121 ± 0.0035
242.88 K, 28066 kPa | 0.1102 ± 0.0039
242.91 K, 63824 kPa | 0.1193 ± 0.004
242.93 K, 20434 kPa | 0.1075 ± 0.0035
242.93 K, 53255 kPa | 0.1164 ± 0.004
242.96 K, 43854 kPa | 0.1143 ± 0.0049
242.98 K, 36047 kPa | 0.1118 ± 0.0039
242.99 K, 13448 kPa | 0.1056 ± 0.0034
243.04 K, 7102 kPa | 0.1029 ± 0.0034
243.05 K, 28059 kPa | 0.1096 ± 0.0045
243.08 K, 588 kPa | 0.101 ± 0.0039
243.11 K, 20431 kPa | 0.1071 ± 0.0034
243.18 K, 13440 kPa | 0.105 ± 0.0034
243.22 K, 7112 kPa | 0.1026 ± 0.0033
243.23 K, 63821 kPa | 0.1197 ± 0.0037
243.26 K, 584 kPa | 0.1004 ± 0.004
243.26 K, 53253 kPa | 0.1164 ± 0.0036
243.29 K, 43835 kPa | 0.1146 ± 0.0048
243.3 K, 36069 kPa | 0.1121 ± 0.0037
243.4 K, 28075 kPa | 0.1098 ± 0.0041
243.42 K, 63814 kPa | 0.1191 ± 0.0039
243.44 K, 53247 kPa | 0.1163 ± 0.0035
243.46 K, 20431 kPa | 0.1074 ± 0.0034
243.49 K, 43850 kPa | 0.114 ± 0.0039
243.51 K, 36041 kPa | 0.1117 ± 0.0034
243.53 K, 13443 kPa | 0.1053 ± 0.0061
243.58 K, 7097 kPa | 0.103 ± 0.0032
243.6 K, 28066 kPa | 0.1094 ± 0.0033
243.63 K, 586 kPa | 0.1005 ± 0.004
243.66 K, 20425 kPa | 0.107 ± 0.0036
243.74 K, 63809 kPa | 0.1193 ± 0.0054
243.78 K, 53242 kPa | 0.1168 ± 0.0036
243.8 K, 7115 kPa | 0.1027 ± 0.0033
243.83 K, 43827 kPa | 0.1143 ± 0.0056
243.85 K, 580 kPa | 0.1001 ± 0.0042
243.85 K, 36062 kPa | 0.1118 ± 0.0041
243.96 K, 28066 kPa | 0.1097 ± 0.0033
243.96 K, 63804 kPa | 0.119 ± 0.0036
244 K, 53243 kPa | 0.1163 ± 0.0035
244.02 K, 20445 kPa | 0.1073 ± 0.0048
244.06 K, 43851 kPa | 0.1139 ± 0.0036
244.09 K, 36043 kPa | 0.1116 ± 0.0034
244.19 K, 28067 kPa | 0.1093 ± 0.0033
244.27 K, 20428 kPa | 0.1068 ± 0.0039
261.5 K, 276 kPa | 0.09433 ± 0.0029
261.52 K, 5038 kPa | 0.09629 ± 0.0032
261.54 K, 10280 kPa | 0.09846 ± 0.0035
261.55 K, 22296 kPa | 0.1036 ± 0.011
261.56 K, 15956 kPa | 0.1002 ± 0.0053
261.58 K, 270 kPa | 0.09415 ± 0.0033
261.61 K, 5056 kPa | 0.09622 ± 0.0046
261.63 K, 10283 kPa | 0.09831 ± 0.0031
261.64 K, 22292 kPa | 0.1023 ± 0.0031
261.65 K, 15950 kPa | 0.1003 ± 0.005
261.91 K, 36411 kPa | 0.1079 ± 0.0071
261.91 K, 42842 kPa | 0.1093 ± 0.0037
261.93 K, 282 kPa | 0.09438 ± 0.0029
261.93 K, 5041 kPa | 0.09641 ± 0.0032
261.94 K, 29216 kPa | 0.1051 ± 0.0033
261.95 K, 22290 kPa | 0.103 ± 0.0069
261.96 K, 10273 kPa | 0.09851 ± 0.0034
261.96 K, 15950 kPa | 0.1005 ± 0.0037
261.97 K, 65297 kPa | 0.1155 ± 0.0045
262 K, 59186 kPa | 0.115 ± 0.0037
262.01 K, 36414 kPa | 0.1074 ± 0.0045
262.01 K, 42847 kPa | 0.1089 ± 0.0033
262.02 K, 51140 kPa | 0.1116 ± 0.0034
262.04 K, 270 kPa | 0.094 ± 0.0031
262.05 K, 29220 kPa | 0.105 ± 0.0039
262.06 K, 5047 kPa | 0.09593 ± 0.0039
262.06 K, 10278 kPa | 0.09816 ± 0.0031
262.06 K, 22290 kPa | 0.1024 ± 0.0031
262.06 K, 65280 kPa | 0.115 ± 0.0064
262.08 K, 15930 kPa | 0.1003 ± 0.0037
262.1 K, 59178 kPa | 0.1128 ± 0.011
262.12 K, 51139 kPa | 0.1114 ± 0.0044
262.33 K, 36413 kPa | 0.1071 ± 0.0061
262.33 K, 42846 kPa | 0.1091 ± 0.0036
262.37 K, 65275 kPa | 0.1153 ± 0.0038
262.38 K, 29224 kPa | 0.1054 ± 0.0032
262.4 K, 275 kPa | 0.09425 ± 0.0035
262.4 K, 22288 kPa | 0.1026 ± 0.0034
262.41 K, 59182 kPa | 0.1141 ± 0.0087
262.42 K, 5040 kPa | 0.09609 ± 0.004
262.42 K, 10267 kPa | 0.09829 ± 0.0032
262.43 K, 51128 kPa | 0.1115 ± 0.0034
262.44 K, 15943 kPa | 0.1005 ± 0.0032
262.46 K, 42848 kPa | 0.1091 ± 0.0033
262.47 K, 36410 kPa | 0.107 ± 0.0047
262.5 K, 65252 kPa | 0.115 ± 0.004
262.51 K, 29222 kPa | 0.1049 ± 0.0045
262.53 K, 59166 kPa | 0.1136 ± 0.0053
262.55 K, 22288 kPa | 0.1025 ± 0.0031
262.56 K, 273 kPa | 0.09391 ± 0.0032
262.56 K, 51133 kPa | 0.1113 ± 0.0034
262.57 K, 5039 kPa | 0.09583 ± 0.003
262.57 K, 10288 kPa | 0.09813 ± 0.0035
262.57 K, 15931 kPa | 0.09995 ± 0.003
262.8 K, 42854 kPa | 0.1091 ± 0.0033
262.81 K, 36411 kPa | 0.107 ± 0.0033
262.81 K, 65229 kPa | 0.1152 ± 0.0046
262.86 K, 29224 kPa | 0.105 ± 0.0039
262.86 K, 59156 kPa | 0.1141 ± 0.0063
262.89 K, 51121 kPa | 0.1116 ± 0.0034
262.9 K, 22284 kPa | 0.1027 ± 0.0031
262.94 K, 280 kPa | 0.094 ± 0.0032
262.94 K, 10264 kPa | 0.09833 ± 0.0031
262.94 K, 15933 kPa | 0.1003 ± 0.0034
262.95 K, 5058 kPa | 0.09606 ± 0.0029
262.95 K, 42854 kPa | 0.1089 ± 0.0033
262.96 K, 65209 kPa | 0.115 ± 0.008
262.98 K, 36413 kPa | 0.1068 ± 0.0032
263.01 K, 59151 kPa | 0.1135 ± 0.0035
263.03 K, 29224 kPa | 0.1045 ± 0.0032
263.05 K, 51114 kPa | 0.1112 ± 0.0034
263.06 K, 22282 kPa | 0.1023 ± 0.0031
